Measurements as given in patent US20230357193A1, “COMPOUND CAPABLE OF INHIBITING AND DEGRADING ANDROGEN RECEPTORS, AND PHARMACEUTICAL COMPOSITIONS AND PHARMACEUTICAL USES THEREOF” (Sichuan Haisco Pharmaceutical Co., Ltd., priority 2020, published 2023).
Where two headings read alike, the source gives them in different places.

Key:
[1] = test system: Prostate cancer cells VCaP; test: Experiment on inhibiting VCaP cell proliferation (CellTiter-Glo, with 0.1 nM R1881); assay type: cell-based; conditions: Homo sapiens, 168 h, read-out: GI50 for inhibition of VCaP cells
Protocol: Prostate cancer cells VCaP were purchased from ATCC, the cell medium was 1640 + 10% FBS, and the cells were cultured in an incubator at 37° C. under 5% CO2. On day 1, the cells in an exponential phase were collected. With a 1% css-FBS phenol red-free medium, the cell suspension was adjusted to a corresponding concentration, plated into T0 wells at 7500 cells/well and incubated for 3 days. After the incubation was completed, R1881 at a final concentration of 0.1 nM and compounds at different concentrations were added, and the plate was placed in the incubator and incubated for another 7 days. On the day of the addition, T0 plate was detected using a CellTiter-Glo kit and recorded as RLU0. After the incubation was completed, 100 µL of mediums was pipetted from each well. According to operation instructions for a CellTiter-Glo kit (Promega, G7573), 50 µL of CellTiter-Glo reagents, which were already pre-melted and equilibrated to room temperature, were then added to each well, and the mixtures were uniformly mixed for 2 min using a microplate shaker. The plate was placed at room temperature for 10 min, and then […] signal values were measured using a microplate reader (PHERAstar FSX). The results were processed according to formula (1), the inhibition rate of the compound at different concentrations was calculated, and the GI50 value of the compound with an inhibition rate of 50% was calculated using origin9.2 software, wherein RLU compound was the readout of the treated group, and RLUcontrol was the average value of the solvent control group.

[2] = test system: Prostate cancer cells 22RV1; test: Experiment on inhibiting 22RV1 cell proliferation (CellTiter-Glo); assay type: cell-based; conditions: Homo sapiens, 168 h, 22RV1 cells, 7 days incubation, read-out: IC50 for inhibition of 22RV1 cells
Protocol: Prostate cancer cells 22RV1 were purchased from ATCC, the cell medium was RPMI 1640 + 10% FBS, and the cells were cultured in an incubator at 37° C. under 5% CO2. On day 1, the cells in an exponential phase were collected. With a 1% css-FBS phenol red-free medium, the cell suspension was adjusted to a corresponding concentration, plated at 2000 cells/well and incubated overnight. On day 2, compounds at different concentrations were added, and the plate was placed in the incubator and incubated for another 7 days. After the incubation was completed, according to operation instructions for a CellTiter-Glo kit (Promega, G7573), 50 µL of CellTiter-Glo reagents, which were already pre-melted and equilibrated to room temperature, were added to each well, and the mixtures were uniformly mixed for 2 min using a microplate shaker. The plate was placed at room temperature for 10 min, and then […] signal values were measured using a microplate reader (PHERAstar FSX). The results were processed according to formula (2), the inhibition rate of the compound at different concentrations was calculated, and the IC50 value of the compound with an inhibition rate of 50% was calculated using origin9.2 software with DoseResp function, wherein RLUcompound was the readout of the treated group, and RLUcontrol was the average value of the DMSO solvent control group.

[3] = Pharmacokinetic experiment in rats; assay type: in vivo; conditions: male SD rats, i.g. 20 mg/kg
Protocol: Objective: in this experiment, a single dose of each test compound was administered to SD rats intravenously and intragastrically, the concentrations of the test compound in plasma of rats were measured, and the pharmacokinetic characteristics and bioavailability of the test compound in rats were evaluated.
Experimental animals: male SD rats, 200-250 g, 6-8 weeks old, 6 rats/compound, purchased from CHENGDU DOSSY EXPERIMENTAL ANIMALS CO., LTD.
Experimental method: on the day of the experiment, six SD rats were randomly grouped according to their body weights. The animals were fasted but with water available for 12 to 14 hours one day before the administration, and were fed 4 h after the administration.
Sampling: before and after the administration, 0.1 mL of blood was taken from the orbit of the rats under isoflurane anesthesia and placed in an EDTAK2 centrifuge tube. Centrifugation was carried out at 5000 rpm at 4° C. for 10 min, and the plasma was collected.
Time points for plasma collection in G1 and G2 groups: 0, 5 min, 15 min, 30 min, 1 h, 2 h, 4 h, 6 h, 8 h, and 24 h.
Before analysis and detection, all samples were stored at -80° C. The samples were analyzed quantitatively by LC-MS/MS.

[4] = VCaP cells, 0.1 nM R1881, 7 days incubation, CellTiter-Glo

Row | SMILES | GI50 [1, 4] | other results
1 | CC(C)(C(=O)Nc1ccc(C#N)c(C(F)(F)F)c1)n1cc(C2CCN(C3CCC4(CC3)CN(c3ccc5c(c3)C(=O)N(C3CCC(=O)NC3=O)C5=O)C4)CC2)cn1 (stereo not shown) [Compound 3, N-(4-cyano-3-(trifluoromethyl)phenyl)-2-(4-(1-(2-(2-(2,6-dioxopiperidin-3-yl)-1,3-dioxoisoindolin-5-yl)-2-azaspiro[3.5]nonan-7-yl)piperidin-4-yl)-1H-pyrazol-1-yl)-2-methylpropanamide] | 3090 nM | 
2 | CC(C)(C(=O)Nc1ccc(C#N)c(C(F)(F)F)c1)n1cc(C#CC2CN(C3CN(c4ccc5c(c4)C(=O)N(C4CCC(=O)NC4=O)C5=O)C3)C2)cn1 (stereo not shown) [Compound 8, N-(4-cyano-3-(trifluoromethyl)phenyl)-2-(4-((1′-(2-(2,6-dioxopiperidin-3-yl)-1,3-dioxoisoindolin-5-yl)-[1,3′-biazetidin]-3-yl)ethynyl)-1H-pyrazol-1-yl)-2-methylpropanamide] | 3960 nM | 
3 | N#Cc1ccc(NC(=O)C2(n3cc(C4CCN(CC5CCN(c6ccc7c(c6)C(=O)N(C6CCC(=O)NC6=O)C7=O)C5)CC4)cn3)CCC2)cc1C(F)(F)F (stereo not shown) [Compound 4] | 1810 nM | 
4 | CC(C)(C(=O)Nc1ccc(C#N)c(C(F)(F)F)c1)n1cc(C2CCN(CC3CCN(c4ccc5c(c4)C(=O)N(C4CCC(=O)NC4=O)C5=O)C3)CC2)cn1 (stereo not shown) [Compound 2, N-(4-cyano-3-(trifluoromethyl)phenyl)-2-(4-(1-((1-(2-(2,6-dioxopiperidin-3-yl)-1,3-dioxoisoindolin-5-yl)pyrrolidin-3-yl)methyl)piperidin-4-yl)-1H-pyrazol-1-yl)-2-methylpropanamide] | 4790 nM | 
5 | CC(C)(C(=O)Nc1ccc(C#N)c(C(F)(F)F)c1)n1cc(C#CC2CN(c3ccc4c(c3)C(=O)N(C3CCC(=O)NC3=O)C4=O)C2)cn1 (stereo not shown) [Compound 9, N-(4-cyano-3-(trifluoromethyl)phenyl)-2-(4-((1-(2-(2,6-dioxopiperidin-3-yl)-1,3-dioxoisoindolin-5-yl)azetidin-3-yl)ethynyl)-1H-pyrazol-1-yl)-2-methylpropanamide] |  | GI50 ([1]; VCaP): 180 nM; IC50 [2]: 78 nM; Oral bioavailability [3]: Yes; AUC(0-t) ([3]; rat, po, plasma): 45600 ± 3720 ng·h/mL; half-life ([3]; rat, po, plasma): 1440 ± 600 min
6 | N#Cc1ccc(NC(=O)C2(n3cc(C#CC4CN(C5CN(c6ccc7c(c6)C(=O)N(C6CCC(=O)NC6=O)C7=O)C5)C4)cn3)CCC2)cc1C(F)(F)F (stereo not shown) [Compound 6, N-[4-cyano-3-(trifluoromethyl)phenyl]-1-[4-[2-[1-[1-[2-(2,6-dioxo-3-piperidyl)-1,3-dioxo-isoindolin-5-yl]azetidin-3-yl]azetidin-3-yl]ethynyl]pyrazol-1-yl]cyclobutanecarboxamide] | 1690 nM | 
7 | N#Cc1ccc(NC(=O)C2(n3cc(C#CC4CN(c5ccc6c(c5)C(=O)N(C5CCC(=O)NC5=O)C6=O)C4)cn3)CCC2)cc1C(F)(F)F (stereo not shown) [Compound 7, N-[4-cyano-3-(trifluoromethyl)phenyl]-1-[4-[2-[1-[2-(2,6-dioxo-3-piperidyl)-1,3-dioxo-isoindolin-5-yl]azetidin-3-yl]ethynyl]pyrazol-1-yl]cyclobutanecarboxamide] | 470 nM | 
8 | CC(C)(C(=O)Nc1ccc(C#N)c(C(F)(F)F)c1)n1cc(C#CC2CCN(c3ccc4c(c3)C(=O)N(C3CCC(=O)NC3=O)C4=O)CC2)cn1 (stereo not shown) [Compound 10, N-(4-cyano-3-(trifluoromethyl)phenyl)-2-(4-((1-(2-(2,6-dioxopiperidin-3-yl)-1,3-dioxoisoindolin-5-yl)piperidin-4-yl)ethynyl)-1H-pyrazol-1-yl)-2-methylpropanamide] | 330 nM | 
9 | CC(C)(C(=O)Nc1ccc(C#N)c(C(F)(F)F)c1)n1cc(C2CCN(c3ccc4c(c3)C(=O)N(C3CCC(=O)NC3=O)C4=O)CC2)cn1 (stereo not shown) [Compound 5, N-(4-cyano-3-(trifluoromethyl)phenyl)-2-(4-(1-(2-(2,6-dioxopiperidin-3-yl)-1,3-dioxoisoindolin-5-yl)piperidin-4-yl)-1H-pyrazol-1-yl)-2-methylpropanamide] | 1910 nM | 
